The first assay relates to Rattus norvegicus. Put plainly: Percent inhibition against carrageenan-induced rat paw edema at 50 mg/kg dose administered perorally; 21-30%. The note with it: route oral. It is filed as functional. A general note: Carrageenan injected into the paw causes an acute inflammation.
As usually defined, the inhibition in vivo is the relative decrease from the control value, in per cent. `CC(C)c1nc(=O)c2ccccc2n1-c1cccc(C(F)(F)F)c1` displayed an inhibition in vivo at 50 mg/kg of 30%. In the case of `CC(C)c1nc(=O)c2ccccc2n1-c1ccc(N)cc1`, testing at 50 mg/kg gave an inhibition in vivo of 30%. Same read-out and setting: the figure for `CC(C)n1c(-c2ccccc2Cl)nc(=O)c2cc(F)ccc21` is 30%. In turn, `O=c1nc(C2CCC2)n(-c2ccccc2)c2ccccc12` had an inhibition in vivo at 50 mg/kg of 30%. On the same count and under the same terms, the figure for `Cc1ccc2c(=O)nc(C(C)C)n(-c3ccccc3)c2c1` is 30%; for `CCN(CC)Cc1nc(=O)c2ccccc2n1-c1cccc(C(F)(F)F)c1` it is 30%; for `CC(C)n1c(-c2ccccc2)nc(=O)c2cc(Br)ccc21` it is 30%. The same measure, in the same setting: under `CC(C)Cc1nc(=O)c2ccccc2n1-c1ccccc1` stands 30%; under `COc1ccc2c(c1)c(=O)nc(-c1ccccc1F)n2C(C)C`, 30%.

The test system of the next assay is Rattus norvegicus. Put plainly: Percent inhibition against carrageenan-induced rat paw edema at 50 mg/kg dose administered perorally; 0-10%. As to conditions: route oral. The assay is classed as functional.
The molecule `O=c1nc(CCl)n(-c2ccccc2)c2ccccc12` registered an inhibition in vivo at 50 mg/kg of 10%. The molecule `CC(C)(C)c1nc(=O)c2ccccc2n1-c1ccccc1` returned an inhibition in vivo at 50 mg/kg of 10%. The same measure, in the same setting: the figure for `O=c1nc(CCl)n(-c2cccc(C(F)(F)F)c2)c2ccccc12` is 10%.

Molecule `CC(C)c1nc(=O)c2cc(CC(=O)O)ccc2n1-c1ccccc1` displayed an inhibition in vivo at 50 mg/kg of 10%. `Cc1nc(=O)c2ccccc2n1-c1cccc(C(F)(F)F)c1` gave an inhibition in vivo at 50 mg/kg of 10%.

`O=c1nc(C(F)(F)F)n(-c2ccccc2)c2ccccc12`: 50 mg/kg produced 10% inhibition in vivo. Regarding `O=C(O)CCc1nc(=O)c2ccccc2n1-c1ccccc1`, the inhibition in vivo at 50 mg/kg worked out at 10%. On to `COc1ccccc1-c1nc(=O)c2ccccc2n1C(C)C`, for which 50 mg/kg produced 10% inhibition in vivo. Still for that read-out and setting: under `CC(=O)c1ccc2c(c1)c(=O)nc(C(C)C)n2-c1ccccc1` stands 10%; under `O=c1nc(C2CC2)n(-c2cccc(C(F)(F)F)c2)c2ccccc12`, 10%. Same read-out and setting: the figure for `CC(C)c1nc(=O)n(-c2ccccc2)c2ccccc12` is 10%; for `COC(=O)CCc1nc(=O)c2ccccc2n1-c1ccccc1` it is 10%; for `O=c1nc(C2CCCCCC2)n(-c2ccccc2)c2ccccc12` it is 10%.

Molecule `CC(C)n1c(-c2ccccc2Br)nc(=O)c2ccccc21` registered an inhibition in vivo at 50 mg/kg of 10%. `Cc1nc(=O)c2ccccc2n1-c1ccccc1` yielded an inhibition in vivo at 50 mg/kg of 10%.

Turning to `O=c1nc(C2CC2)n(-c2ccc(Cl)cc2)c2ccccc12`, the inhibition in vivo at 50 mg/kg amounted to 10%. `CC(C)c1nc(=O)c2ccc([N+](=O)[O-])cc2n1-c1ccccc1` yielded an inhibition in vivo at 50 mg/kg of 10%. On the same count and under the same terms, under `CN(C)c1nc(=O)c2ccccc2n1-c1ccccc1` stands 10%; under `CC(C)N1c2ccccc2C(=O)NC1c1ccccc1Cl` (centres undefined), 10%; under `Cc1ccc(-c2nc(=O)c3ccccc3n2C(C)C)cc1`, 10%.

For the molecule `CC(C)n1c(-c2ccc(N)cc2)nc(=O)c2ccccc21`, testing at 50 mg/kg gave an inhibition in vivo of 10%.

`CC(C)c1nc(=O)c2ccccc2n1-c1ccccc1C(N)=O`: the inhibition in vivo at 50 mg/kg worked out at 10%. Molecule `O=c1nc(C2CCC2)n(-c2ccc([N+](=O)[O-])cc2)c2ccccc12` had an inhibition in vivo at 50 mg/kg of 10%. The same measure, in the same setting: under `CCN(CC)Cc1nc(=O)c2ccccc2n1-c1ccccc1` stands 10%. Consider `CC(C)n1c(-c2ccc(Cl)cc2)nc(=O)c2cc(Cl)ccc21`, for which the inhibition in vivo at 50 mg/kg worked out at 10%. For the molecule `CCCCc1nc(=O)c2ccccc2n1-c1ccccc1`, the inhibition in vivo at 50 mg/kg amounted to 10%.

Molecule `O=c1nc(C2CC2)n(-c2ccc([N+](=O)[O-])cc2)c2ccccc12` had an inhibition in vivo at 50 mg/kg of 10%. On to `CC(C)C1NC(=O)c2ccccc2N1c1ccccc1` (centres undefined), for which the inhibition in vivo at 50 mg/kg was 10%. As for `Cc1ccc2c(=O)nc(-c3ccccc3)n(C(C)C)c2c1`, the inhibition in vivo at 50 mg/kg worked out at 10%. As for `CC(C)n1c(-c2ccc([N+](=O)[O-])cc2)nc(=O)c2ccccc21`, the inhibition in vivo at 50 mg/kg came out at 10%.

(Values after ChEMBL document CHEMBL1123144, “Studies on 4(1H)-quinazolinones. 5. Synthesis and antiinflammatory activity of 4(1H)-quinazolinone derivatives” (J Med Chem, 1985).)
